{"source": "patent US20120214760A1", "about": "“TREATMENT OF URINARY TRACT INFECTIONS WITH ANTIBACTERIAL AMINOGLYCOSIDE COMPOUNDS” (Achaogen, Inc., priority 2009, published 2012)", "key": {"[1]": {"system": "K. pneumoniae ATCC 43816, Susceptible", "assay": "Murine neutropenic thigh model", "format": "in vivo", "description": "(§1) The in vivo activity of Example 1 in the mouse neutropenic thigh model (Andes and Craig. Antimicrob Agents Chemother. 2002, 46:1665-1670) was determined against seven bacterial strains including susceptible Escherichia coli and Klebsiella pneumoniae; multi-drug resistant (MDR) clinical isolates of E. coli and K. pneumoniae that display resistance to multiple antibiotics (including AGs); MRSA; and two K. pneumoniae carbapenemases (KPC)-expressing strains (see Table 5). For this efficacy model, groups of six CD-1 mice were rendered neutropenic by two intraperitoneal injections of cyclophosphamide. The first injection was 150 mg/kg three days prior to infection (day −4), and the second injection was 100 mg/kg one day prior to infection (day −1). On study day 0, animals were inoculated intramuscularly (0.1 ml) with a known number of colony forming units (CFU) of the specified bacterial strain (ATCC 25922, AECO 1003, ATCC 43816, AKPN 1073, AKPN 1109, ATCC 33591 or ASMA 1030), tailored to the virulence of each strain in the model to maximize bacterial load while avoiding mortality in the untreated control arms. Antibiotics were administered via subcutaneous injection at 2 and 14 hours after bacterial challenge. At 26 hours, infected thigh tissue was harvested, homogenized, and plated to count CFU. Untreated control animals were harvested at 2 hours post-infection to assess the initial bacterial load and at 26 hours post-infection to measure growth in the absence of antibiotic treatment."}, "[2]": {"system": "E. coli ATCC 25922, Susceptible", "assay": "Murine neutropenic thigh model", "format": "in vivo", "description": "as §1"}, "[3]": {"system": "S. marcescens ASMA 1030, KPC", "assay": "Murine neutropenic thigh model", "format": "in vivo", "description": "as §1"}, "seven bacterial strains": {"system": "seven bacterial strains", "assay": "Murine neutropenic thigh model, all strains", "format": "in vivo", "description": "as §1, with “Untreated control animals were harvested at 2 hours post-infection to assess the initial bacterial load and at 26 hours post-infection to measure growth in the absence of antibiotic treatment.” left out"}, "[4]": {"system": "E. coli ATCC 25922 (AECO001)", "assay": "MIC, CLSI broth microdilution", "format": "cell-based", "conditions": "for MIC: Escherichia coli", "procedure,_shortened": "(§2)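 MICs were read after 20 hours at 35° C in ambient air, with a final inoculum of 5×10^5 CFU/mL from saline-suspended overnight colonies. Serial two-fold dilutions in Mueller Hinton Broth followed the CLSI reference method (M7-A7), with QC strains E. coli ATCC 25922, P. aeruginosa ATCC 27853 and S. aureus ATCC 29213.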"}, "[5]": {"system": "P. aeruginosa ATCC 27853 (APAE001)", "assay": "MIC, CLSI broth microdilution", "format": "cell-based", "conditions": "Pseudomonas aeruginosa, ATCC27853; Table 2; read-out: MIC P. aeruginosa", "procedure,_shortened": "as §2"}, "Pathogens (169 in total)": {"system": "Pathogens (169 in total)", "assay": "Susceptibility testing, all urinary tract infection isolates", "format": "cell-based", "conditions": "all isolates", "description": "(§3) Minimum inhibitory concentrations (MIC) were determined by reference Clinical and Laboratory Standards Institute (CLSI) broth microdilution methods per M7-A7 [2006]. Quality control ranges utilizing E. coli ATCC 25922, P. aeruginosa ATCC 27853 and S. aureus ATCC 29213, and interpretive criteria for comparator agents were as published in CLSI M100-S17 [2007]. Briefly, serial two-fold dilutions of the test compounds were prepared at 2× concentration in Mueller Hinton Broth. The compound dilutions were mixed in 96-well assay plates in a 1:1 ratio with bacterial inoculum. The inoculum was prepared by suspension of a colony from an agar plate that was prepared the previous day. Bacteria were suspended in sterile saline and added to each assay plate to obtain a final concentration of 5×10^5 CFU/mL. The plates were incubated at 35° C. for 20 hours in ambient air.\n(§4) In order to determine the activity of representative antibacterial aminoglycoside compounds against bacterial species that commonly cause complicated urinary tract infections worldwide, isolates were collected from 47 medical centers in the U.S. and Europe (10 countries) from urine or blood culture with the source of bacteremia documented as a urinary tract infection. Strains were susceptibility tested against Example 1, gentamicin, amikacin and 10 comparators by CLSI broth microdilution. These MIC assays were conducted following the same protocol as set forth in Example 110. Pathogens (169 in total) included E. coli, Klebsiella spp., Enterobacter spp., Citrobacter spp., P. mirabilis, M. Morganii, P. aeruginosa, S. aureus and S. saprophyticus."}, "E. coli AECO 1003, MDR": {"system": "E. coli AECO 1003, MDR", "assay": "Murine neutropenic thigh model", "format": "in vivo", "description": "Activity is presented as the log10 difference in CFU/thigh after 24 hours of antibiotic treatment compared to CFU/thigh just prior to antibiotic treatment (2 hours post-infection). Total dose per 24 hours is shown; dosing was q12 hours. 6 mice per group. Inoculum=1.5×10^3 CFU.\nas §1"}, "[6]": {"system": "E. coli, Klebsiella spp., Enterobacter spp. and Citrobacter spp.", "assay": "MIC, urinary tract infection isolates", "format": "cell-based", "conditions": "Escherichia coli, range among E. coli", "description": "as §3, §4"}, "S. aureus (23)": {"system": "S. aureus (23)", "assay": "MIC, urinary tract infection isolates", "format": "cell-based", "conditions": "Staphylococcus aureus; S. aureus isolates, including 43.5% oxacillin-resistant strains", "description": "as §3, §4"}, "[7]": {"system": "P. mirabilis and M. morganii", "assay": "MIC, urinary tract infection isolates", "format": "cell-based", "description": "as §3, §4"}, "S. saprophyticus (19)": {"system": "S. saprophyticus (19)", "assay": "MIC, urinary tract infection isolates", "format": "cell-based", "conditions": "Staphylococcus saprophyticus; S. saprophyticus isolates", "description": "as §3, §4"}, "P. aeruginosa (19)": {"system": "P. aeruginosa (19)", "assay": "MIC, urinary tract infection isolates", "format": "cell-based", "conditions": "Pseudomonas aeruginosa; P. aeruginosa isolates", "description": "as §3, §4"}, "[8]": {"system": "E. coli AECO040, AAC(6′)-I", "assay": "MIC, aminoglycoside resistant strain", "format": "cell-based", "conditions": "Table 3", "description": "as §3\n(§5) These MIC assays were conducted following the same protocol as set forth in Example 110. As shown, substituted sisomicin derivatives with groups other than methyl at the 6′-position have improved activity against strains expressing the AAC6′-modifying enzymes."}, "[9]": {"system": "S. marcescens ASMA003, ANT(2″) + AAC(6′)", "assay": "MIC, aminoglycoside resistant strain", "format": "cell-based", "conditions": "Table 3", "description": "as §3, §5"}, "[10]": {"system": "A. calcoaceticus AACA005, AAC(6′)-I", "assay": "MIC, aminoglycoside resistant strain", "format": "cell-based", "conditions": "Table 3", "description": "as §3, §5"}, "[11]": {"system": "S. aureus ATCC 33591, MRSA", "assay": "Murine neutropenic thigh model", "format": "in vivo", "description": "FIG. 4 is a line graph showing dose-responses of Example 1, arbekacin, gentamicin, vancomycin, and daptomycin in a murine neutropenic thigh model against an MRSA (ATCC 33591). Activity is presented as the log10 difference in CFU/thigh after 24 hours of antibiotic treatment compared to CFU/thigh just prior to antibiotic treatment (2 hours post-infection). Total dose per 24 hours is shown; dosing was q12 hours. 6 mice per group, Inoculum=1.2×10^3 CFU.\nas §1"}}, "note": "Read-outs that look alike come from different tables or passages of the source."}
{"smiles": "CN[C@@H]1[C@@H](O)[C@@H](O[C@@H]2[C@@H](O)[C@H](O[C@H]3OC(CNCCO)=CC[C@H]3N)[C@@H](N)C[C@H]2NC(=O)[C@@H](O)CCN)OC[C@]1(C)O", "note": "[Example 1, 6′-(2-Hydroxy-ethyl)-1-(4-amino-2(S)-hydroxy-butyryl)-sisomicin]", "values": [{"measurement": "ED50/MIC", "setting": "[1]", "result": 7.4}, {"measurement": "ED50", "setting": "[1]; Klebsiella pneumoniae, ATCC43816, sc, neutropenic CD-1 mice, subcutaneous at 2 and 14 hours", "result": 3.7, "unit": "mg/kg"}, {"measurement": "ED50/MIC", "setting": "[2]", "result": 8.4}, {"measurement": "ED50", "setting": "[2]; Escherichia coli, ATCC25922, sc, neutropenic CD-1 mice, subcutaneous at 2 and 14 hours", "result": 8.4, "unit": "mg/kg"}, {"measurement": "ED50/MIC", "setting": "[3]", "result": 16.5}, {"measurement": "ED50", "setting": "[3]; Serratia marcescens, sc, neutropenic CD-1 mice, subcutaneous at 2 and 14 hours", "result": 16.5, "unit": "mg/kg"}, {"measurement": "bacterial titers versus initial bacterial load (static level)", "setting": "seven bacterial strains; all 7 strains", "result": "reducing bacterial titers back to or below the initial bacterial load"}, {"measurement": "in vivo efficacy in words", "setting": "seven bacterial strains; gentamicin resistant strains", "result": "efficacious"}, {"measurement": "MIC", "setting": "[4]; ATCC25922, Table 2, read-out: MIC E. coli", "result": "< 1", "unit": "µg/mL"}, {"measurement": "MIC", "setting": "[4]; ATCC25922, Table 5, E. coli Susceptible ATCC 25922, read-out: MIC", "result": 1, "unit": "µg/mL"}, {"measurement": "MIC", "setting": "[4]; Table 1, AECO001 is ATCC25922, read-out: MIC AECO001", "result": "< 1", "unit": "µg/mL"}, {"measurement": "MIC AECO001", "setting": "[4]; Table 3, ATCC25922", "result": 0.5, "unit": "µg/mL"}, {"measurement": "MIC", "setting": "[5]", "result": "1 to 16", "unit": "µg/mL"}, {"measurement": "% of strains inhibited", "setting": "Pathogens (169 in total); at ≦4 μg/ml", "result": 90.5, "unit": "%"}, {"measurement": "% of strains inhibited", "setting": "Pathogens (169 in total); at ≦16 μg/ml", "result": 98.8, "unit": "%"}, {"measurement": "ED50/MIC", "setting": "E. coli AECO 1003, MDR; E. coli AECO 1003", "result": 14.6}, {"measurement": "ED50", "setting": "E. coli AECO 1003, MDR; Escherichia coli, sc, neutropenic CD-1 mice, subcutaneous at 2 and 14 hours, E. coli AECO 1003", "result": 14.6, "unit": "mg/kg"}, {"measurement": "bacterial titer after 24 hours of treatment versus initial bacterial load at 2 hours post-inoculation", "setting": "E. coli AECO 1003, MDR; highest dosage, challenge 1.5×10^3 CFU AECO 1003, FIG. 1", "result": "reduced to below the initial bacterial load"}, {"measurement": "MIC90", "setting": "[6]", "result": "0.5 to 2", "unit": "µg/mL"}, {"measurement": "MIC90", "setting": "S. aureus (23)", "result": 2, "unit": "µg/mL"}, {"measurement": "MIC90", "setting": "[7]", "result": "4 to 8", "unit": "µg/mL"}, {"measurement": "MIC50", "setting": "S. saprophyticus (19)", "result": "≤ 0.25", "unit": "µg/mL"}, {"measurement": "MIC90", "setting": "S. saprophyticus (19)", "result": 0.5, "unit": "µg/mL"}, {"measurement": "MIC90", "setting": "P. aeruginosa (19)", "result": 16, "unit": "µg/mL"}, {"measurement": "MIC AECO040", "setting": "[8]", "result": 0.5, "unit": "µg/mL"}, {"measurement": "MIC ASMA003", "setting": "[9]", "result": 2, "unit": "µg/mL"}, {"measurement": "MIC AACA005", "setting": "[10]", "result": 2, "unit": "µg/mL"}, {"measurement": "ED50/MIC", "setting": "[11]; S. aureus ATCC 33591", "result": "4.8-9.7"}, {"measurement": "ED50", "setting": "[11]; Staphylococcus aureus, sc, neutropenic CD-1 mice, subcutaneous at 2 and 14 hours, S. aureus ATCC 33591", "result": 38.7, "unit": "mg/kg"}, {"measurement": "bacterial load after 24 hours of treatment versus initial bacterial load at 2 hours post-inoculation", "setting": "[11]; two highest dosages, challenge 1.2×10^3 CFU ATCC 33591, FIG. 4", "result": "reduced to below the initial bacterial load"}]}
